Measurements from the supplement of paper PMC10307832.

How the values were obtained:
Assay in all cases: relative viability (nuclei count vs DMSO), 5 days (fraction); higher = more cells survive
Motesanib + Crizotinib = compound: CC1(C)CNc2cc(NC(=O)c3cccnc3NCc3ccncc3)ccc21 [Motesanib] + C[C@@H](Oc1cc(-c2cnn(C3CCNCC3)c2)cnc1N)c1c(Cl)ccc(F)c1Cl [Crizotinib] (partner 1 µM)
Method in brief: (§1)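 Five library-drug doses in √10 steps were combined with a fixed anchor-drug dose, or a single drug was given alone, by pin tool to lung cancer cell lines in 1536-well plates the day after seeding. Nuclei were stained and counted after 5 days. Relative viability is the nuclei count in treated wells over that in vehicle wells, taken as the median of duplicate plates.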

[1] = compound: C[C@@]1(C(=O)Nc2ccc(F)nc2)CCCN1c1nc(Nc2cc(C3CC3)n[nH]2)c2cccn2n1 + Cc1cc(Nc2cc(N3CCN(C)CC3)nc(Sc3ccc(NC(=O)C4CC4)cc3)n2)n[nH]1 [Tozasertib] (partner 0.1 µM)
Method in brief: as §1

[2] = compound: C[C@@]1(C(=O)Nc2ccc(F)nc2)CCCN1c1nc(Nc2cc(C3CC3)n[nH]2)c2cccn2n1 + Nc1ncn([C@H]2C[C@H](O)[C@@H](CO)O2)c(=O)n1 [Decitabine] (partner 2 µM)
Method in brief: as §1

[3] = compound: C[C@@]1(C(=O)Nc2ccc(F)nc2)CCCN1c1nc(Nc2cc(C3CC3)n[nH]2)c2cccn2n1 + CC(=O)Nc1cccc(-n2c(=O)n(C3CC3)c(=O)c3c(Nc4ccc(I)cc4F)n(C)c(=O)c(C)c32)c1 [Trametinib] (partner 0.02 µM)
Method in brief: as §1

With UMC-11 as the cell line, how does the relative viability (Motesanib + Crizotinib; first compound 0.01 µM) read?
The relative viability was 0.526.

And the relative viability (Motesanib + Crizotinib; first compound 0.03162 µM)?
Its relative viability is 0.657.

What about the relative viability (Motesanib + Crizotinib; first compound 0.1 µM) of the same cell line?
The relative viability was 0.631.

What about the relative viability (Motesanib + Crizotinib; first compound 0.3162 µM) of the same cell line?
The relative viability was 0.595.

And the relative viability (Motesanib + Crizotinib; first compound 1 µM)?
The relative viability was 0.742.

What about the relative viability ([1]; first compound 0.04 µM) of the same cell line?
The relative viability was 0.2.

And the relative viability ([1]; first compound 0.1265 µM)?
Its relative viability is 0.203.

And the relative viability ([1]; first compound 0.4 µM)?
The relative viability was 0.204.

What about the relative viability ([1]; first compound 1.265 µM) of the same cell line?
Its relative viability is 0.184.

And the relative viability ([2]; first compound 0.04 µM)?
Its relative viability is 0.638.

And the relative viability ([2]; first compound 0.1265 µM)?
Its relative viability is 0.45.

And the relative viability ([2]; first compound 0.4 µM)?
The relative viability was 0.317.

What about the relative viability ([2]; first compound 1.265 µM) of the same cell line?
The relative viability was 0.646.

And the relative viability ([3]; first compound 0.04 µM)?
Its relative viability is 0.703.

And the relative viability ([3]; first compound 0.1265 µM)?
Its relative viability is 0.671.

And the relative viability ([3]; first compound 0.4 µM)?
The relative viability was 0.651.

And the relative viability ([3]; first compound 1.265 µM)?
The relative viability was 0.648.
